Where “and” joins values, the source holds several entries; their conditions need not be identical. Equal values may be shown once.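 In this assay, cells in 96-well plates receive the compound at five concentrations for 48 hours. Endpoints are linearly interpolated between the surrounding concentrations. Here, GI50 denotes the concentration required for 50% inhibition of growth. TGI is the concentration that stops growth completely.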
Columns and labels:
Test in all cases: DTP human tumour cell line panel, 48 h
786-0 renal = tested on: 786-0 renal
RXF 393 renal = tested on: RXF 393 renal
NCI/ADR-RES ovarian = tested on: NCI/ADR-RES ovarian
SW-620 colon = tested on: SW-620 colon
UO-31 renal = tested on: UO-31 renal
SK-OV-3 ovarian = tested on: SK-OV-3 ovarian
SN12C renal = tested on: SN12C renal
COLO 205 colon = tested on: COLO 205 colon
SNB-75 CNS = tested on: SNB-75 CNS
NCI-H460 lung = tested on: NCI-H460 lung
KM12 colon = tested on: KM12 colon
SR leukemia = tested on: SR leukemia
M14 melanoma = tested on: M14 melanoma
MCF7 breast = tested on: MCF7 breast
SK-MEL-5 melanoma = tested on: SK-MEL-5 melanoma
MALME-3M melanoma = tested on: MALME-3M melanoma
HCC-2998 colon = tested on: HCC-2998 colon
A549 NSCLC = tested on: A549 NSCLC
SF-295 CNS = tested on: SF-295 CNS
NCI-H226 lung = tested on: NCI-H226 lung
CAKI-1 renal = tested on: CAKI-1 renal
MDA-MB-231 breast = tested on: MDA-MB-231 breast
MOLT-4 leukemia = tested on: MOLT-4 leukemia
OVCAR-4 ovarian = tested on: OVCAR-4 ovarian
RPMI-8226 leukemia = tested on: RPMI-8226 leukemia
PC-3 prostate = tested on: PC-3 prostate
OVCAR-5 ovarian = tested on: OVCAR-5 ovarian
SNB-19 CNS = tested on: SNB-19 CNS
HOP-92 NSCLC = tested on: HOP-92 NSCLC
HCT-116 colon = tested on: HCT-116 colon
SK-MEL-28 melanoma = tested on: SK-MEL-28 melanoma
TK-10 renal = tested on: TK-10 renal
LOX IMVI melanoma = tested on: LOX IMVI melanoma
DU-145 prostate = tested on: DU-145 prostate
HCT-15 colon = tested on: HCT-15 colon
T-47D breast = tested on: T-47D breast
HS 578T breast = tested on: HS 578T breast
A498 renal = tested on: A498 renal
OVCAR-3 ovarian = tested on: OVCAR-3 ovarian
NCI-H23 lung = tested on: NCI-H23 lung
SF-268 CNS = tested on: SF-268 CNS
UACC-257 melanoma = tested on: UACC-257 melanoma
HOP-62 NSCLC = tested on: HOP-62 NSCLC
HL-60(TB) leukemia = tested on: HL-60(TB) leukemia
EKVX NSCLC = tested on: EKVX NSCLC
OVCAR-8 ovarian = tested on: OVCAR-8 ovarian
K-562 leukemia = tested on: K-562 leukemia
MDA-MB-435 = tested on: MDA-MB-435
ACHN renal = tested on: ACHN renal
SK-MEL-2 melanoma = tested on: SK-MEL-2 melanoma
IGROV1 ovarian = tested on: IGROV1 ovarian
BT-549 breast = tested on: BT-549 breast
HT29 colon = tested on: HT29 colon
UACC-62 melanoma = tested on: UACC-62 melanoma
NCI-H522 lung = tested on: NCI-H522 lung
SF-539 CNS = tested on: SF-539 CNS
U251 CNS = tested on: U251 CNS

## CCN(CC)CCOc1ccc(/C(=C(\Cl)c2ccccc2)c2ccccc2)cc1
786-0 renal
  GI50: 0.94 µM and 1.7 µM
  TGI: 1.81 µM and 3.17 µM
RXF 393 renal
  GI50: 0.955 µM and 1.49 µM
  TGI: 2.46 µM and 3.03 µM
NCI/ADR-RES ovarian
  GI50: 5.56 µM and 3.34 µM
  TGI: 12.2 µM and 14.4 µM
SW-620 colon
  GI50: 1.11 µM and 1.74 µM
  TGI: 2.56 µM and 3.73 µM
UO-31 renal
  GI50: 0.856 µM and 1.49 µM
  TGI: 2.62 µM and 5.9 µM
SK-OV-3 ovarian
  GI50: 5.38 µM and 4.67 µM
  TGI: 11.5 µM and 17.2 µM
SN12C renal
  GI50: 5.28 µM and 4.43 µM
  TGI: 11.9 µM and 16.5 µM
COLO 205 colon
  GI50: 0.859 µM and 1.36 µM
  TGI: 1.72 µM and 2.83 µM
SNB-75 CNS
  GI50: 2.19 µM and 1.39 µM
  TGI: 8.5 µM and 4.95 µM
NCI-H460 lung
  GI50: 1.72 µM and 1.78 µM
  TGI: 5.32 µM and 3.43 µM
KM12 colon
  GI50: 2.1 µM and 1.87 µM
  TGI: 7.2 µM and 4.08 µM
SR leukemia
  GI50: 1.9 µM and 2.3 µM
  TGI: 9.16 µM and 8.36 µM
M14 melanoma
  GI50: 1.03 µM and 1.73 µM
  TGI: 2.04 µM and 3.44 µM
MCF7 breast
  GI50: 0.307 µM and 0.577 µM
  TGI: 7.55 µM and 2.99 µM
SK-MEL-5 melanoma
  GI50: 0.808 µM and 1.55 µM
  TGI: 1.5 µM and 2.88 µM
MALME-3M melanoma
  GI50: 1.21 µM and 1.43 µM
  TGI: 3.88 µM and 2.99 µM
HCC-2998 colon
  GI50: 2 µM and 2.4 µM
  TGI: 7.35 µM and 6.41 µM
A549 NSCLC
  GI50: 2.92 µM and 4.32 µM
  TGI: 9.57 µM and 15.3 µM
SF-295 CNS
  GI50: 1.06 µM and 1.87 µM
  TGI: 2.54 µM and 4.02 µM
NCI-H226 lung
  GI50: 5.46 µM and 4.01 µM
  TGI: 12.9 µM and 16.3 µM
CAKI-1 renal
  GI50: 5.47 µM and 1.66 µM
  TGI: 12.3 µM and 5.48 µM
MDA-MB-231 breast
  GI50: 1.37 µM and 2.13 µM
  TGI: 5.16 µM and 4.49 µM
MOLT-4 leukemia
  GI50: 2.98 µM and 3.71 µM
  TGI: 11.8 µM and 13.1 µM
OVCAR-4 ovarian
  GI50: 5.31 µM and 3.14 µM
  TGI: 11.3 µM and 11.6 µM
RPMI-8226 leukemia
  GI50: 2.17 µM
  TGI: 6.98 µM
PC-3 prostate
  GI50: 2.63 µM and 2.76 µM
  TGI: 9.02 µM and 10.2 µM
OVCAR-5 ovarian
  GI50: 3.42 µM and 3.33 µM
  TGI: 9.95 µM and 15.2 µM
SNB-19 CNS
  GI50: 5.41 µM and 2.25 µM
  TGI: 11.9 µM and 5.41 µM
HOP-92 NSCLC
  GI50: 1.58 µM
  TGI: 5.4 µM
HCT-116 colon
  GI50: 2.03 µM and 1.49 µM
  TGI: 7.14 µM and 3.07 µM
SK-MEL-28 melanoma
  GI50: 1.07 µM and 1.79 µM
  TGI: 2.21 µM and 3.47 µM
TK-10 renal
  GI50: 5.62 µM and 2.83 µM
  TGI: 12.6 µM and 10.2 µM
LOX IMVI melanoma
  GI50: 0.916 µM and 1.67 µM
  TGI: 1.89 µM and 3.22 µM
DU-145 prostate
  GI50: 6.79 µM and 5.62 µM
  TGI: 13.3 µM and 19.2 µM
HCT-15 colon
  GI50: 1.47 µM and 1.72 µM
  TGI: 5.01 µM and 7.38 µM
T-47D breast
  GI50: 1.51 µM and 1.73 µM
  TGI: 9.55 µM and 12.9 µM
HS 578T breast
  GI50: 5.25 µM and 3.15 µM
  TGI: 19.4 µM and 17.7 µM
A498 renal
  GI50: 6.96 µM and 2.32 µM
  TGI: 13.7 µM and 10.1 µM
OVCAR-3 ovarian
  GI50: 5.24 µM and 3.42 µM
  TGI: 11.4 µM and 15.7 µM
NCI-H23 lung
  GI50: 5.25 µM and 2.62 µM
  TGI: 11.8 µM and 10.3 µM
SF-268 CNS
  GI50: 5.47 µM and 4.78 µM
  TGI: 11.9 µM and 19.2 µM
UACC-257 melanoma
  GI50: 0.989 µM and 1.97 µM
  TGI: 2.09 µM and 4.04 µM
HOP-62 NSCLC
  GI50: 1.38 µM and 1.94 µM
  TGI: 4.76 µM and 4.16 µM
HL-60(TB) leukemia
  GI50: 2.1 µM and 3.13 µM
  TGI: 7.77 µM and 6.16 µM
EKVX NSCLC
  GI50: 5.74 µM and 3.44 µM
  TGI: 13 µM and 17.3 µM
OVCAR-8 ovarian
  GI50: 7 µM and 4.65 µM
  TGI: 14.3 µM and 18.6 µM
K-562 leukemia
  GI50: 1.55 µM
  TGI: 11.5 µM
MDA-MB-435
  GI50: 1.54 µM and 2.2 µM
  TGI: 5.78 µM and 7.08 µM
ACHN renal
  GI50: 6.4 µM and 4.27 µM
  TGI: 13.1 µM and 16.5 µM
SK-MEL-2 melanoma
  GI50: 3.26 µM and 1.64 µM
  TGI: 10.4 µM and 3.7 µM
IGROV1 ovarian
  GI50: 4.83 µM and 3.04 µM
  TGI: 12.8 µM and 14.1 µM
BT-549 breast
  GI50: 5.48 µM and 2.91 µM
  TGI: 11.9 µM and 12.1 µM
HT29 colon
  GI50: 0.944 µM and 0.353 µM
  TGI: 2.21 µM and 1.38 µM
UACC-62 melanoma
  GI50: 1.04 µM and 2.15 µM
  TGI: 2.33 µM and 4.88 µM
NCI-H522 lung
  GI50: 3.09 µM and 1.47 µM
  TGI: 10 µM and 3.02 µM
SF-539 CNS
  GI50: 1.77 µM and 1.87 µM
  TGI: 5.49 µM and 4.29 µM
U251 CNS
  GI50: 1.72 µM and 1.53 µM
  TGI: 7.22 µM and 3.51 µM

Source: PubChem BioAssay (NCI)
